In US11795195B2, “Antibody-drug conjugates including hemiasterlin derivative” (Sumitomo Pharma Co., Ltd., priority 2017, dated 2023):

What was measured:
[1] = tested on: Karpas-299 cells; test: Cellular Toxicity Test (1), CellTiter-Glo cell viability; type: cell-based, human; details: for IC50: Homo sapiens, 96 h, cultured 4 days, cell viability
Procedure: Karpas-299 cells (European Collection of Authenticated Cell Cultures, hereinafter, ECACC), which are human lymphoma cell lines, were cultured in RPMI 1640 (GIBCO) containing 10% fetal bovine serum (MP Biomedicals) (hereinafter, referred to as the “culture medium”). Cells were prepared to be 2×10^6 cells/mL in the culture medium, and were added to a 96 well microplate for cell culturing in an amount of 50 μL for each well. Compounds of Examples or Comparative Example compound 4 times diluted with the culture medium in 8 stages were added to the microplate in an amount of 50 μL for each well. These were cultured at 37 degree under 5% CO2 for 4 days. After culturing, the microplate was taken out from the incubator, and was left at rest at room temperature for 10 minutes. To each well, 50 μL of CellTiter-Glo Luminescent Cell Viability Assay (Promega) was added, and the resultant mixture was stirred. This mixture was incubated at a dark place for 20 minutes. Using a microplate luminometer, luminescence at each well was measured, thereby calculating the cell viability. In addition, from the value of cell viability, the IC50 value was calculated.
The IC50 value was calculated by the following formula: IC50 (nM)=antilog(LOG10(a/b)×(e−d)/(c−d)+LOG10b) a: concentration a of test substance b: concentration b of test substance c: cell viability upon adding test substance with concentration a d: cell viability upon adding test substance with concentration b e: intermediate value between maximum and minimum among cell viabilities upon adding test substances with different concentrations (a and b are concentrations crossing the cell viability e, and a>b is indicated).
The cell viability at each concentration was calculated by the following formula: Cell Viability (%)=a′/b′×100 a′: mean value of luminescence amount of wells to which test substance was added (n=6) b′: mean value of luminescence amount of wells to which test substance was not added (n=6) (n represents the number of evaluations performed per test substance concentration).

[2] = tested on: SK-BR-3 cells; test: Cellular Toxicity Test (2), CellTiter-Glo cell viability; type: cell-based, human; details: for IC50: Homo sapiens, 72 h, cultured 3 days, cell viability
Procedure: SK-BR-3 cells (ATCC), which are human breast cancer cell line, were cultured in McCoy's 5A (GIBCO) containing 10% fetal bovine serum (MP Biomedicals) (hereinafter, referred to as the “culture medium” in this test). SK-BR-3 cells were prepared to be 2×10^6 cells/mL in the culture medium, added to a 96 well microplate for cell culturing in an amount of 50 μL for each well, and cultured at 37 degree under 5% CO2 overnight, and then, compounds of Examples or Comparative Example compound 4 times diluted with the culture medium in 8 stages were added to the microplate in an amount of 50 μL for each well. These were cultured at 37 degree under 5% CO2 for 3 days. After culturing, the microplate was taken out from the incubator, and was left at rest at room temperature for 10 minutes. 50 μL of CellTiter-Glo Luminescent Cell Viability Assay (Promega) was added to each well, and the resultant mixture was stirred. This mixture was incubated at a dark place for 20 minutes. Using a microplate luminometer, luminescence at each well was measured, thereby calculating the cell viability. The IC50 value was calculated in accordance with the method described in Test Example 1.

[3] = Membrane Permeability Test, parallel artificial membrane permeability assay (PAMPA); type: in vitro ADME; details: pH 7.4, pH7.4, 37° C., read-out: Pe (pH7.4)
Procedure: By the parallel artificial membrane permeability assay (PAMPA), the membrane permeability of compounds of Examples was examined as follows: To the donor plate, System solution (pION inc.) and GIT Lipid-0 (pION inc.) were added in an amount of 200 μL and 4 μL for each well, respectively. To the acceptor plate, Acceptor Sink Buffer (pION inc.) was added in an amount of 200 μL. Both plates were superposed and incubated at 37° C. for 4 hours, and then, UVs in the solutions on the side of acceptor and on the side of donor were measured with an UV plate reader (190 to 500 nm). Compounds with poor UV absorption were measured by LC-MS. The permeability coefficient Pe (10^−6 cm/sec) of the drug was calculated by the following formula.
[formula] • ra=(VD/VA)Pa^(A-D)/Pa^(D-A)=rVPe^(A-D)/Pa^(D-A) • rV=(VD/VA) • VD=volume of doner well • VA=volume of acceptor well • t=permeation time • τ^SS=steady state time • R=retention • CD=CA=concentration in donor and acceptor well

[4] = tested on: Karpas-299 cells; test: Cellular Toxicity Test (1) for ADCs; type: cell-based, human; details: Karpas-299 (CD30 antigen-positive, HER2 antigen-negative cell line), 4 days
Procedure: Karpas-299 cells (ECACC), which are CD30 antigen-positive and HER2 antigen-negative, were cultured in RPMI 1640 (GIBCO) containing 10% fetal bovine serum (MP Biomedicals) (hereinafter, referred to as “culture medium A” in this test). In addition, SK-BR-3 cells (ATCC), which are CD30 antigen-negative and HER2 antigen-positive, were cultured in McCoy's 5A (GIBCO) containing 10% fetal bovine serum (MP Biomedicals) (hereinafter, referred to as “culture medium B” in this test). Karpas-299 cells and SK-BR-3 cells were prepared to be 2×10^6 cells/mL in culture medium A or culture medium B, and were added to a 96 well microplate for cell culturing in an amount of 50 μL for each well. After the addition, SK-BR-3 cells were cultured at 37 degree under 5% CO2 overnight. ADCs 4 times diluted with culture medium A or culture medium B in 8 stages were added to the microplate in an amount of 50 μL for each well, and Karpas-299 cells and SK-BR-3 cells were cultured at 37 degree under 5% CO2 for 4 days or 3 days, respectively. After culturing, the microplate was taken out from the incubator, and was left at rest at room temperature for 10 minutes. […] Using a microplate luminometer, luminescence was measured, thereby calculating the cell viability for each concentration of the ADC. The IC50 value was calculated in accordance with the method described in Test Example 1.

[5] = tested on: Karpas-299 cells; test: Cellular Toxicity Test (2) for ADCs, cell survival relative to brentuximab; type: cell-based, human; details: Karpas-299, 2000 ng/mL solution added, 4 days, relative to cells surviving brentuximab treatment
Procedure: Karpas-299 cells were prepared to be 2×10^6 cells/mL in culture medium A, and were added to a 96 well microplate for cell culturing in an amount of 50 μL for each well. Brentuximab or Example ADCs, the concentration of which was prepared to be 2000 ng/mL with culture medium A, was added to the microplate in an amount of 50 μL for each well, and cultured at 37 degree under 5% CO2 for 4 days. After culturing, the microplate was taken out from the incubator, and was left at rest at room temperature for 10 minutes. To each well, 50 μL of CellTiter-Glo Luminescent Cell Viability Assay (Promega) was added, and the resultant mixture was stirred. This mixture was incubated at a dark place for 20 minutes, and luminescence was measured using a microplate luminometer, thereby determining the percentage of the number of cells that survived upon the treatment with Example ADCs relative to the number of cells that survived upon the treatment with brentuximab.

Row | Molecule | IC50 [1] [nM] | Papp at 4 h [3] [×10⁻⁶ cm/s] | further results
1 | CN[C@H](C(=O)N[C@H](C(=O)N(C)[C@H](/C=C(\C)C(=O)NCCCCNC(=O)CCCCCN1C(=O)C=CC1=O)C(C)C)C(C)(C)C)C(C)(C)c1cn(C)c2ccccc12 [Comparative Example compound, reference compound] | 19.1 | 16.9 | cellular toxicity to Karpas-299 cells (in words) [1]: strong cellular toxicity; cellular toxicity to SK-BR-3 cells (in words) [2]: strong cellular toxicity; IC50 [2]: 162 nM
2 | CN[C@H](C(=O)N[C@H](C(=O)N(C)[C@H](/C=C(\C)C(=O)N[C@H](CC(=O)NCCN1C(=O)C=CC1=O)C(=O)O)C(C)C)C(C)(C)C)C(C)(C)c1cn(C)c2ccccc12 [Example M20] | 406 | < 0.1 | –
3 | C/C(=C\[C@H](C(C)C)N(C)C(=O)[C@@H](NC(=O)[C@@H](NC(=O)CCCCCN1C(=O)C=CC1=O)C(C)(C)c1cn(C)c2ccccc12)C(C)(C)C)C(=O)N[C@H](CCC(=O)O)C(=O)O [Example M48] | > 1000 | 0.3 | –
4 | CN[C@H](C(=O)N[C@H](C(=O)N(C)[C@H](/C=C(\C)C(=O)N[C@H](CC(=O)NCCN1C(=O)C=CC1=O)C(=O)O)C(C)C)C(C)(C)C)C(C)(C)c1ccccc1 [Example M9] | 576 | < 0.1 | –
5 | Comparative Example 1: Brentuximab, a CD30 antigen-specific antibody, no modifying agent, average DAR 0 | – | – | IC50 [4]: > 6.6 nM; Cell survival rate (%) [5]: 100%
6 | CN[C@H](C(=O)N[C@H](C(=O)N(C)[C@H](/C=C(\C)C(=O)N[C@H](CCC(=O)O)C(=O)NCCN1C(=O)C=CC1=O)C(C)C)C(C)(C)C)C(C)(C)c1cn(C)c2ccccc12 [Example M25] | 140 | < 0.1 | –
7 | CN[C@H](C(=O)N[C@H](C(=O)N(C)[C@H](/C=C(\C)C(=O)N[C@@H](CC(=O)NCCN1C(=O)C=CC1=O)C(=O)O)C(C)C)C(C)(C)C)C(C)(C)c1cn(C)c2ccccc12 [Example M19] | 169 | < 0.1 | –
8 | CN[C@H](C(=O)N[C@H](C(=O)N(C)[C@H](/C=C(\C)C(=O)N[C@H](CCC(=O)NCCCN1C(=O)C=CC1=O)C(=O)O)C(C)C)C(C)(C)C)C(C)(C)c1cn(C)c2ccccc12 [Example M23] | 49.7 | < 0.1 | –
9 | CN[C@H](C(=O)N[C@H](C(=O)N(C)[C@H](/C=C(\C)C(=O)N[C@H](CCC(=O)NCCN1C(=O)C=CC1=O)C(=O)O)C(C)C)C(C)(C)C)C(C)(C)c1cccc(C#N)c1 [Example M35] | 8.6 | 0.8 | –
10 | CN[C@H](C(=O)N[C@H](C(=O)N(C)[C@H](/C=C(\C)C(=O)N[C@@H](CCC(=O)O)C(=O)NCCN1C(=O)C=CC1=O)C(C)C)C(C)(C)C)C(C)(C)c1ccccc1 [Example M12] | 29.8 | < 0.1 | –
11 | CN[C@H](C(=O)N[C@H](C(=O)N(C)[C@H](/C=C(\C)C(=O)N[C@@H](CC(=O)NCCN1C(=O)C=CC1=O)C(=O)O)C(C)C)C(C)(C)C)C(C)(C)c1ccccc1 [Example M10] | 544 | < 0.1 | –
12 | CN[C@H](C(=O)N[C@H](C(=O)N(C)[C@H](/C=C(\C)C(=O)N[C@@H](CCC(=O)NCCN1C(=O)C=CC1=O)C(=O)O)C(C)C)C(C)(C)C)C(C)(C)c1ccccc1 [Example M11] | > 1000 | < 0.1 | –
13 | CN[C@H](C(=O)N[C@H](C(=O)N(C)[C@H](/C=C(\C)C(=O)N[C@H](CCC(=O)NCCN1C(=O)C=CC1=O)C(=O)O)C(C)C)C(C)(C)C)C(C)(C)c1cn(C)c2ccccc12 [Example M1, (3S,6S,9S,10E,14R)-6-tert-Butyl-14-(3-{[2-(2,5-dioxo-2,5-dihydro-1H-pyrrol-1-yl)ethyl]amino}-3-oxopropyl)-8,11-dimethyl-3-[2-(1-methyl-1H-indol-3-yl)propan-2-yl]-4,7,12-trioxo-9-(propan-2-yl)-2,5,8,13-tetraazapentadec-10-en-15-oic Acid] | 726 | < 0.1 | IC50 [2]: > 1000 nM
14 | CN[C@H](C(=O)N[C@H](C(=O)N(C)[C@H](/C=C(\C)C(=O)N[C@H](CCC(=O)NCCN1C(=O)C=CC1=O)C(=O)O)C(C)C)C(C)(C)C)C(C)(C)c1cccc(F)c1 [Example M32] | 616 | 0.6 | –
15 | CN[C@H](C(=O)N[C@H](C(=O)N(C)[C@H](/C=C(\C)C(=O)N[C@@H](CCC(=O)O)C(=O)NCCN1C(=O)C=CC1=O)C(C)C)C(C)(C)C)C(C)(C)c1cn(C)c2ccccc12 [Example M22] | 154 | < 0.1 | –
16 | CN[C@H](C(=O)N[C@H](C(=O)N(C)[C@H](/C=C(\C)C(=O)N[C@H](CCC(=O)NCCN1C(=O)C=CC1=O)C(=O)O)C(C)C)C(C)(C)C)C(C)(C)c1cccc(Br)c1 [Example M44] | 9.2 | 6.8 | –
17 | CN[C@H](C(=O)N[C@H](C(=O)N(C)[C@H](/C=C(\C)C(=O)N[C@H](CCC(=O)NCCN1C(=O)C=CC1=O)C(=O)O)C(C)C)C(C)(C)C)C(C)(C)c1cccc(C(F)(F)F)c1 [Example M31] | 197 | 1 | –
